From patent publication US9278922B2 (ABBVIE INC., priority 2009, dated 2016)

Each compound was assayed on HCV 1b-Con-1 replicon (assay: HCV 1b-Con-1 replicon assay (luciferase reporter gene, HuH-7 cells)). Conditions: Hepatitis C virus, Huh-7, luciferase reporter gene activity in the replicon, in the presence of 5% FBS.
Type: cell-based, Hepatitis C virus (HCV) genotype 1b-Con1

First: COC(=O)N[C@@H](Cc1ccccc1)C(=O)N1CCC[C@H]1C(=O)Nc1ccc(CN(Cc2ccc(NC(=O)[C@@H]3CCCN3C(=O)[C@H](Cc3ccccc3)NC(=O)OC)cc2)c2ccccc2)cc1 [Example 61, dimethyl [(phenylimino)bis{methanediylbenzene-4,1-diylcarbamoyl(2S)pyrrolidine-2,1-diyl[(2S)-1-oxo-3-phenylpropane-1,2-diyl]}]biscarbamate]
Second: CC[C@H](NC(=O)OC)C(=O)N1CCC[C@H]1C(=O)Nc1ccc(CN(Cc2ccc(NC(=O)[C@@H]3CCCN3C(=O)[C@H](NC(=O)OC)c3ccccc3)cc2)c2ccccc2)cc1 [Example 71, methyl {(1R)-2-[(2S)-2-{[4-({[4-({[(2S)-1-{(2S)-2-[(methoxycarbonyl)amino]butanoyl}pyrrolidin-2-yl]carbonyl}amino)benzyl](phenyl)amino}methyl)phenyl]carbamoyl}pyrrolidin-1-yl]-2-oxo-1-phenylethyl}carbamate]
The EC50 of the first is higher: 1 to 10 nM for the first, less than 1 nM for the second.

First: CC[C@H](NC(=O)OC)C(=O)N1CCC[C@H]1C(=O)Nc1ccc(CN(Cc2ccc(NC(=O)[C@@H]3CCCN3C(=O)[C@@H](NC(=O)OC)C(C)(C)C)cc2)c2ccccc2)cc1 [Example 62, N-(methoxycarbonyl)-3-methyl-L-valyl-N-(4-{[{4-[(1-{(2S)-2-[(methoxycarbonyl)amino]butanoyl}-L-prolyl)amino]benzyl}(phenyl)amino]methyl}phenyl)-L-prolinamide]
Second: COC(=O)N[C@H](C(=O)N1CCC[C@H]1C(=O)Nc1ccc(CN(Cc2ccc(NC(=O)[C@@H]3CCCN3C(=O)[C@H](NC(=O)OC)c3ccccc3)cc2)c2ccccc2)cc1)C(C)(C)C [Example 69]
The EC50 of the first is higher: 1 to 10 nM for the first, less than 1 nM for the second.

Compared with COC(=O)N[C@@H]1CCC[C@H]2CC[C@@H](C(=O)Nc3ccc(CN(Cc4ccc(NC(=O)[C@@H]5CC[C@@H]6CCC[C@@H](NC(=O)OC)C(=O)N65)cc4)c4ccccc4)cc3)N2C1=O [Example 63, dimethyl [(phenylimino)bis{methanediylbenzene-4,1-diylcarbamoyl[(3S,6R,9aS)-5-oxooctahydro-1H-pyrrolo[1,2-a]azepine-3,6-diyl]}]biscarbamate], COC(=O)N[C@H](C(=O)N1CCC[C@H]1C(=O)Nc1ccc(CN(Cc2ccc(NC(=O)[C@@H]3CCCN3C(=O)[C@H](NC(=O)OC)c3ccccc3)cc2)c2ccccc2)cc1)[C@H]1CCOC1 [Example 72] is lower in EC50: 10 to 100 nM for the first, less than 1 nM for the second. The second is the more potent here.

C=CC[C@H]1CC[C@@H](C(=O)Nc2ccc(CN(Cc3ccc(NC(=O)[C@@H]4CC[C@H](CC=C)N4C(=O)[C@@H](NC(=O)OC)C(C)(C)C)cc3)c3ccccc3)cc2)N1C(=O)[C@@H](NC(=O)OC)C(C)(C)C [Example 64] and COC(=O)N[C@H](C(=O)N1CC(F)(F)C[C@H]1C(=O)Nc1ccc(CN(Cc2ccc(NC(=O)[C@@H]3CC(F)(F)CN3C(=O)[C@@H](NC(=O)OC)C(C)(C)C)cc2)c2ccccc2)cc1)C(C)(C)C [Example 73] cannot be ordered by EC50: less than 1 nM for the first, less than 1 nM for the second.

CCN(CC)[C@@H](C(=O)N1CCC[C@H]1c1nc2cc(CN(Cc3ccc4[nH]c([C@@H]5CCCN5C(=O)[C@@H](c5ccccc5)N(CC)CC)nc4c3)c3ccccc3)ccc2[nH]1)c1ccccc1 [Example 65, N,N-bis[(2-{(2S)-1-[(2R)-2-(diethylamino)-2-phenylacetyl]pyrrolidin-2-yl}-1H-benzimidazol-5-yl)methyl]aniline] and O=C([C@@H](c1ccccc1)N1CCCC1)N1CCC[C@H]1c1nc2cc(CN(Cc3ccc4[nH]c([C@@H]5CCCN5C(=O)[C@@H](c5ccccc5)N5CCCC5)nc4c3)c3ccccc3)ccc2[nH]1 [Example 66, N,N-bis[(2-{(2S)-1-[(2R)-2-phenyl-2-pyrrolidin-1-ylacetyl]pyrrolidin-2-yl}-1H-benzimidazol-5-yl)methyl]aniline] cannot be ordered by EC50: less than 1 nM for the first, less than 1 nM for the second.

O=C([C@@H](c1ccccc1)N1CCOCC1)N1CCC[C@H]1c1nc2cc(CN(Cc3ccc4[nH]c([C@@H]5CCCN5C(=O)[C@@H](c5ccccc5)N5CCOCC5)nc4c3)c3ccccc3)ccc2[nH]1 [Example 67, N,N-bis[(2-{(2S)-1-[(2R)-2-morpholin-4-yl-2-phenylacetyl]pyrrolidin-2-yl}-1H-benzimidazol-5-yl)methyl]aniline] and COC(=O)N[C@H](C(=O)N1CCC[C@H]1c1nc2cc(CN(Cc3ccc4[nH]c([C@@H]5CCCN5C(=O)[C@@H](NC(=O)OC)[C@H]5CCOC5)nc4c3)c3ccccc3)ccc2[nH]1)[C@H]1CCOC1 [Example 78, dimethyl {(phenylimino)bis[methanediyl-1H-benzimidazole-5,2-diyl(2S)pyrrolidine-2,1-diyl{(1S)-2-oxo-1-[(3R)-tetrahydrofuran-3-yl]ethane-2,1-diyl}]}biscarbamate] cannot be ordered by EC50: less than 1 nM for the first, less than 1 nM for the second.

COC(=O)N[C@H](C(=O)N1CCC[C@H]1C(=O)Nc1ccc(CN(Cc2ccc(NC(=O)[C@@H]3CCCN3C(=O)[C@H](NC(=O)OC)c3ccccc3)cc2)c2ccccc2)cc1)C(C)C [Example 70, N-(methoxycarbonyl)-L-valyl-N-(4-{[{4-[(1-{(2R)-2-[(methoxycarbonyl)amino]-2-phenylacetyl}-L-prolyl)amino]benzyl}(phenyl)amino]methyl}phenyl)-L-prolinamide] and COC(=O)N[C@H](C(=O)N1CCC[C@H]1C(=O)Nc1ccc(CN(Cc2ccc(NC(=O)[C@@H]3CCCN3C(=O)[C@H](NC(=O)OC(C)(C)C)c3ccccc3)cc2)c2ccccc2)cc1)C(C)(C)C [Example 74, N-(methoxycarbonyl)-3-methyl-L-valyl-N-(4-{[{4-[(1-{(2R)-2-[(tert-butoxycarbonyl)amino]-2-phenylacetyl}-L-prolyl)amino]benzyl}(phenyl)amino]methyl}phenyl)-L-prolinamide] cannot be ordered by EC50: less than 1 nM for the first, less than 1 nM for the second.

CCN(CC)[C@@H](C(=O)N1CCC[C@H]1C(=O)Nc1ccc(CN(Cc2ccc(NC(=O)[C@@H]3CCCN3C(=O)[C@H](NC(=O)OC)c3ccccc3)cc2)c2ccccc2)cc1)c1ccccc1 [Example 75, methyl [(1R)-2-{(2S)-2-[(4-{[{-4-[({(2S)-1-[(2R)-2-(diethylamino)-2-phenylacetyl]pyrrolidin-2-yl}carbonyl)amino]benzyl}(phenyl)amino]methyl}phenyl)carbamoyl]pyrrolidin-1-yl}-2-oxo-1-phenylethyl]carbamate] and CCN(CC)[C@@H](C(=O)N1CCC[C@H]1C(=O)Nc1ccc(CN(Cc2ccc(NC(=O)[C@@H]3CCCN3C(=O)[C@@H](NC(=O)OC)C(C)(C)C)cc2)c2ccc(F)cc2)cc1)c1ccccc1 [Example 82, N-(methoxycarbonyl)-3-methyl-L-valyl-N-[4-({[4-({1-[(2R)-2-(diethylamino)-2-phenylacetyl]-L-prolyl}amino)benzyl](4-fluorophenyl)amino}methyl)phenyl]-L-prolinamide] cannot be ordered by EC50: less than 1 nM for the first, less than 1 nM for the second.

COC(=O)N[C@@H](C(=O)N1CCC[C@H]1C(=O)Nc1ccc(CN(Cc2ccc(NC(=O)[C@@H]3CCCN3C(=O)[C@@H]3CCCO3)cc2)c2ccccc2)cc1)c1ccccc1 [Example 76, methyl {(1R)-2-oxo-1-phenyl-2-[(2S)-2-({4-[(phenyl{4-[({(2S)-1-[(2S)-tetrahydrofuran-2-ylcarbonyl]pyrrolidin-2-yl}carbonyl)amino]benzyl}amino)methyl]phenyl}carbamoyl)pyrrolidin-1-yl]ethyl}carbamate] and COC(=O)N[C@H](C(=O)N1CCC[C@H]1C(=O)Nc1ccc(CN(Cc2ccc(NC(=O)[C@@H]3CCCN3C(=O)[C@H](N)c3ccccc3)cc2)c2ccccc2)cc1)C(C)(C)C [Example 77, N-(methoxycarbonyl)-3-methyl-L-valyl-N-[4-({[4-({1-[(2R)-2-amino-2-phenylacetyl]-L-proly}amino)benzyl](phenyl)amino}methyl)phenyl]-L-prolinamide] cannot be ordered by EC50: less than 1 nM for the first, less than 1 nM for the second.

CC(=O)N[C@H](C(=O)N1CCC[C@H]1C(=O)Nc1ccc(CN(Cc2ccc(NC(=O)[C@@H]3CCCN3C(=O)[C@@H](NC(C)=O)C(C)(C)C)cc2)c2ccccc2)cc1)C(C)(C)C [Example 79, (2S,2′S)-N,N′-[(phenylimino)bis(methanediylbenzene-4,1-diyl)]bis {1-[(2S)-2-(acetylamino)-3,3-dimethylbutanoyl]pyrrolidine-2-carboxamide}] and CN(C)C(=O)N[C@H](C(=O)N1CCC[C@H]1C(=O)Nc1ccc(CN(Cc2ccc(NC(=O)[C@@H]3CCCN3C(=O)[C@@H](NC(=O)N(C)C)C(C)(C)C)cc2)c2ccccc2)cc1)C(C)(C)C [Example 80, (2S,2′S)-N,N′-[(phenylimino)bis(methanediylbenzene-4,1-diyl)]bis(1-{(2S)-2-[(dimethylcarbamoyl)amino]-3,3-dimethylbutanoyl}pyrrolidine-2-carboxamide)] fall in the same range of EC50: 10 to 100 nM for the first, 10 to 100 nM for the second.

CCN(CC)[C@@H](C(=O)N1CCC[C@H]1C(=O)Nc1ccc(CN(Cc2ccc(NC(=O)[C@@H]3CCCN3C(=O)[C@@H](NC(=O)OC)[C@H]3CCOC3)cc2)c2ccc(F)cc2)cc1)c1ccccc1 [Example 81, methyl {(1S)-2-{(2S)-2-[(4-{[{4-[({(2S)-1-[(2R)-2-(diethylamino)-2-phenylacetyl]pyrrolidin-2-yl}carbonyl)amino]benzy}(4-fluorophenyl)amino]methyl}phenyl)carbamoyl]pyrrolidin-1-yl}-2-oxo-1-[(3R)-tetrahydrofuran-3-yl]ethyl}carbamate] and CCN(CC)[C@@H](C(=O)N1CCC[C@H]1C(=O)Nc1ccc(CN(Cc2ccc(NC(=O)[C@@H]3CCCN3C(=O)[C@@H](NC(=O)OC)[C@@H](C)OC)cc2)c2ccc(F)cc2)cc1)c1ccccc1 [Example 84, N-(methoxycarbonyl)-O-methyl-L-threonyl-N-[4-({[4-({1-[(2R)-2-(diethylamino)-2-phenylacetyl]-L-prolyl}amino)benzyl](4-fluorophenyl)amino}methyl)phenyl]-L-prolinamide] cannot be ordered by EC50: less than 1 nM for the first, less than 1 nM for the second.

CCN(CC)[C@@H](C(=O)N1CCC[C@H]1C(=O)Nc1ccc(CN(Cc2ccc(NC(=O)[C@@H]3CCCN3C(=O)[C@@H](c3ccccc3)N3CCCC3)cc2)c2ccc(F)cc2)cc1)c1ccccc1 [Example 83, (2S)-1-[(2R)-2-(diethylamino)-2-phenylacetyl]-N-(4-{[(4-fluorophenyl){4-[({(2S)-1-[(2R)-2-phenyl-2-pyrrolidin-1-ylacetyl]pyrrolidin-2-yl}carbonyl)amino]benzyl}amino]methyl}phenyl)pyrrolidine-2-carboxamide] showed an EC50 of less than 1 nM.
